Measured values as given in patent US20230181539A1, “METHODS FOR THE TREATMENT OF CORONAVIRUS INFECTIONS” (INSERM (INSTITUT NATIONAL DE LA SANTÉ ET DE LA RECHERCHE …, priority 2020, published 2023).
Like-named read-outs stand apart in the source and are kept apart here.

Test system: SARS-CoV-2 strain BavPat1
Assay: Determination of EC50 and EC90: inhibition of SARS-CoV-2 viral RNA replication in Vero E6 cells (RT-qPCR)
Format: cell-based
Conditions: Severe acute respiratory syndrome coronavirus 2, Vero C1008, 48 h, read-out: EC50 (compound concentration required to inhibit viral RNA replication by 50%)

| SMILES | EC50 | EC50 (Vero E6 cells, MOI 0.002, 2 days of culture, viral RNA in supernatant) |
| --- | --- | --- |
| CCC(CC)COC(=O)[C@H](C)N[P@](=O)(OC[C@H]1O[C@@](C#N)(c2ccc3c(N)ncnn23)[C@H](O)[C@@H]1O)Oc1ccccc1 [remdesivir, Remdesivir] | 2.7 µM |  |
| CCn1c(CO)nn(-c2cc(O[C@@H](C)C(F)(F)F)c(C(=O)Nc3c(F)cccc3Cl)cc2F)c1=O [BAY-2402234, N-(2-Chloro-6-fluorophenyl)-4-[4-ethyl-3-(hydroxymethyl)-5-oxo-1,2,4-triazol-1-yl]-5-fluoro-2-[(2S)-1,1,1-trifluoropropan-2-yl]oxybenzamide] |  | < 0.04 µM |
